Assay results reported in patent US9169252B2 (BRISTOL-MYERS SQUIBB COMPANY, priority 2014, dated 2015).
Read-outs that look alike come from different tables or passages of the source. Blank lines part the entries; values can stand above or below the molecule they belong to.

Assays:
IRAK4 = IRAK4 (Homo sapiens (Human), UniProt Q9NWZ3); experiment: IRAK4 Inhibition Assay; assay type: biochemical; settings: ATP 500 μM, read-out: IRAK4 IC50
Method in brief: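 Mobility-shift readout: fluorescent substrate and phosphoproduct resolved electrophoretically on Caliper LabChip 3000 after EDTA quench (35 mM). Enzyme reaction of IRAK4, substrates and test compound ran 60 min at room temperature.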

[1] = tested on: TLR2 induced IL-6 in peripheral blood mononuclear cells (PBMCs); experiment: PBMC TLR2 Induced IL-6 Assay; assay type: cell-based, human; settings: for EC50: read-out: Cell EC50; for IC50: read-out: Cell IC50
Method in brief: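 Lipoteichoic acid at 10 µg/ml served as TLR2 stimulus for 5 hours, following a 30-minute compound pretreatment at 37° C. Cells were Ficoll-isolated human PBMCs, 250000 cells/well, cultured in RPMI plus 10% heat-inactivated FCS.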

[2] = Homo sapiens, PBMC, human PBMCs, lipoteichoic acid stimulated, IL-6 by ELISA
[3] = Homo sapiens, PBMC, PBMC TLR2 Induced IL-6 Assay, lipoteichoic acid stimulation, IL-6 by ELISA
[4] = human PBMCs, lipoteichoic acid stimulated, IL-6 by ELISA

IRAK4, sequence (Q9NWZ3 whole entry, species assumed): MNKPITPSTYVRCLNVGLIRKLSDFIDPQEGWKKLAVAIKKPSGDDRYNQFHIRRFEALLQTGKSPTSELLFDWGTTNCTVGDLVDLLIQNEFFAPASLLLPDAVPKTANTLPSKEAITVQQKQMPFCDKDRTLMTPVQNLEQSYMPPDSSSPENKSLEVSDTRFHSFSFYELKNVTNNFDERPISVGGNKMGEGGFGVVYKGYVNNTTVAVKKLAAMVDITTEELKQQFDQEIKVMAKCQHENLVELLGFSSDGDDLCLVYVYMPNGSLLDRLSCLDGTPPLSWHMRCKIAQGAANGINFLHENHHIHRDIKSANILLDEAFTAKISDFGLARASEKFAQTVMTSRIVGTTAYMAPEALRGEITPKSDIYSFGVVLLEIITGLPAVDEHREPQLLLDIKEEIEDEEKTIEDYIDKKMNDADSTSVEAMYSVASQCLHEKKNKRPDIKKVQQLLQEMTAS

SMILES: CC(C)(O)[C@H](F)CNC(=O)c1cnc(-n2ncc3cc(C#N)cnc32)cc1NC12CCC(O)(CC1)C2 [Example 613]
IC50 (IRAK4; IRAK4 0.6 nM): 2.8 nM
EC50 [1, 2]: 157 nM
IC50 [1, 2]: 130 nM

SMILES: CC(C)Nc1cc(-n2ncc3cc(C#N)cnc32)ncc1C(=O)NC[C@@H](F)C(=O)N[C@@H](C)CO [Example 230]
IC50 (IRAK4; IRAK4 Inhibition Assay): 13.4 nM
EC50 [1, 3]: 410 nM
IC50 [1, 3]: 459 nM

SMILES: CC[C@@H](CO)Nc1cc(-n2ncc3cc(C#N)cnc32)ncc1C(=O)NC[C@@H](F)C(C)(C)O [Example 588]
IC50 (IRAK4; IRAK4 0.6 nM): 4.4 nM
IC50 [1, 2]: 506 nM

SMILES: CC(C)Nc1cc(-n2ncc3cc(C#N)cnc32)ncc1C(=O)N[C@H]1CC[C@H](S(C)(=O)=O)CC1 [Example 161, 6-(5-cyano-1H-pyrazolo[3,4-b]pyridin-1-yl)-4-(isopropylamino)-N-((trans)-4-(methylsulfonyl)cyclohexyl)nicotinamide]
IC50 (IRAK4; IRAK4 Inhibition Assay): 6.8 nM
EC50 [1, 3]: 253 nM

SMILES: CC(C)Nc1cc(-n2ncc3cc(C(F)F)cnc32)ncc1C(=O)NC[C@@H](F)C(C)(C)O [Example 231]
IC50 (IRAK4; IRAK4 Inhibition Assay): 14.2 nM
EC50 [1, 3]: 237 nM
IC50 [1, 3]: 544 nM

SMILES: CC(C)(F)CCNc1cc(-n2ncc3cc(C#N)cnc32)ncc1C(=O)NC[C@@H](F)C(C)(C)O [Example 600]
IC50 (IRAK4; IRAK4 0.6 nM): 5.3 nM
IC50 [1, 2]: 477 nM

SMILES: CC(C)Nc1cc(-n2ncc3cc(C#N)c(N)nc32)ncc1C(=O)NC1C=CCC1 (centres unmarked) [Example 327]
IC50 (IRAK4; IRAK4 Inhibition Assay): 11.1 nM
IC50 [1, 3]: 181 nM

SMILES: CC(C)(O)[C@H](F)CNC(=O)c1cnc(-n2ncc3cc(C#N)cnc32)cc1NC1CCC(F)(F)C1 (single isomer, unassigned) [Example 615]
IC50 (IRAK4; IRAK4 0.6 nM): 2.3 nM
IC50 [1, 4]: 190 nM

SMILES: CC(C)Nc1cc(-n2ncc3cc(C#N)cnc32)ncc1C(=O)NCCC1(O)CCN(C)CC1 [Example 250]
IC50 (IRAK4; IRAK4 Inhibition Assay): 8.3 nM
EC50 [1, 3]: 497 nM

SMILES: CC(C)(F)[C@H](F)CNC(=O)c1cnc(-n2cnc3cc(C#N)cnc32)cc1NC1COC1 [Example 344]
IC50 (IRAK4; IRAK4 Inhibition Assay): 13.5 nM
IC50 [1, 3]: 144 nM

SMILES: COCCn1cc(Nc2cc(-n3cnc4cc(Cl)cnc43)ncc2C(=O)NC[C@@H](F)C(C)(C)O)cn1 [Example 366]
IC50 (IRAK4; IRAK4 Inhibition Assay): 7.9 nM
IC50 [1, 3]: 205 nM

SMILES: CC(C)CCNC(=O)c1cnc(-n2ncc3cc(C#N)cnc32)cc1NC(C)C [Example 298]
IC50 (IRAK4; IRAK4 Inhibition Assay): 4.5 nM
IC50 [1, 3]: 142 nM

SMILES: CC(C)Nc1cc(-n2ncc3cc(C#N)cnc32)ncc1C(=O)NCCC1(O)CCN(C2COC2)CC1 [Example 253]
IC50 (IRAK4; IRAK4 Inhibition Assay): 8.5 nM
IC50 [1, 3]: 363 nM

SMILES: CC(C)(O)[C@H](F)CNC(=O)c1cnc(-n2ncc3cc(C#N)cnc32)cc1N[C@H]1CC[C@H](NC(=O)c2ccccc2F)CC1 [Example 634]
IC50 (IRAK4; IRAK4 0.6 nM): 3.9 nM
IC50 [1, 2]: 277 nM

SMILES: CC[C@H](C)Nc1cc(-n2ncc3cc(C#N)cnc32)ncc1C(=O)NC[C@@H](F)C(C)(C)O [Example 289]
IC50 (IRAK4; IRAK4 Inhibition Assay): 4.7 nM
IC50 [1, 3]: 275 nM

SMILES: CC(C)Nc1cc(-n2ccc3cc(C#N)cnc32)ncc1C(=O)NC12CCC(O)(CC1)C2 [Example 415]
IC50 (IRAK4; IRAK4 0.6 nM): 14.8 nM
EC50 [1, 2]: 286 nM

SMILES: CC(C)(O)[C@H]1CC[C@H](NC(=O)c2cnc(-n3ccc4cc(C#N)cnc43)cc2NC2CC2)CC1 [Example 429]
IC50 (IRAK4; IRAK4 0.6 nM): 1.5 nM
EC50 [1, 2]: 92 nM

SMILES: CCOP(=O)(CCNC(=O)c1cnc(-n2ncc3cc(C#N)cnc32)cc1NC(C)C)OCC [Example 208]
IC50 (IRAK4; IRAK4 Inhibition Assay): 16 nM
EC50 ([1]; Homo sapiens, PBMC): 238 nM

SMILES: CC(C)Nc1cc(-n2ccc3cc(C#N)cnc32)ncc1C(=O)N[C@H]1CC[C@](C)(O)CC1 [Example 99, 6-(5-cyano-1H-pyrrolo[2,3-b]pyridin-1-yl)-N-((trans)-4-hydroxy-4-methylcyclohexyl)-4-(isopropylamino)nicotinamide]
IC50 (IRAK4; IRAK4 Inhibition Assay): 4.6 nM
EC50 [1, 3]: 223 nM

SMILES: CC(C)(O)[C@H]1CCC[C@@H](Nc2cc(-n3ncc4cc(C#N)cnc43)ncc2C(=O)NC[C@@H](F)C(C)(C)O)C1 [Example 612]
IC50 (IRAK4; IRAK4 0.6 nM): 5.6 nM
EC50 [1, 2]: 163 nM
IC50 [1, 2]: 262 nM

SMILES: CC(C)Nc1cc(-n2ccc3cc(C#N)cnc32)ncc1C(=O)NCC(F)C1(O)COC1 (centres unmarked) [Example 495]
IC50 (IRAK4; IRAK4 0.6 nM): 1.8 nM
IC50 [1, 4]: 215 nM

Continued, in another order:

IC50 (IRAK4; IRAK4 Inhibition Assay): 1.7 nM
SMILES: CC(C)(O)[C@H](F)CNC(=O)c1cnc(-n2ccc3cc(C#N)cnc32)cc1Nc1ccc2ncsc2c1 [Example 64, (R)-4-(benzo[d]thiazol-6-ylamino)-6-(5-cyano-1H-pyrrolo[2,3-b]pyridin-1-yl)-N-(2-fluoro-3-hydroxy-3-methylbutyl)nicotinamide]
EC50 [1, 3]: 93 nM

IC50 (IRAK4; IRAK4 Inhibition Assay): 3.9 nM
SMILES: CS(=O)(=O)[C@H]1CC[C@H](NC(=O)c2cnc(-n3ccc4cc(C#N)cnc43)cc2Nc2cccc(C(N)=O)c2)CC1 [Example 105, 4-((3-Carbamoylphenyl)amino)-6-(5-cyano-1H-pyrrolo[2,3-b]pyridin-1-yl)-N-((trans)-4-(methylsulfonyl)cyclohexyl)nicotinamide]
EC50 [1, 3]: 437 nM

IC50 (IRAK4; IRAK4 Inhibition Assay): 2.4 nM
SMILES: CC(C)(O)[C@H](F)CNC(=O)c1cnc(-n2ccc3cc(C#N)cnc32)cc1NC[C@@H](F)C(C)(C)O [Example 52, 6-(5-cyano-1H-pyrrolo[2,3-b]pyridin-1-yl)-N—((R)-2-fluoro-3-hydroxy-3-methylbutyl)-4-(((R)-2-fluoro-3-hydroxy-3-methylbutyl)amino)nicotinamide]
EC50 [1, 3]: 66 nM

IC50 (IRAK4; IRAK4 Inhibition Assay): 1.9 nM
SMILES: CC(=O)N[C@H]1CC[C@H](NC(=O)c2cnc(-n3ccc4cc(C#N)cnc43)cc2NC2CC2)CC1 [Example 87, N-((trans)-4-acetamidocyclohexyl)-6-(5-cyano-1H-pyrrolo[2,3-b]pyridin-1-yl)-4-(cyclopropylamino)nicotinamide]
EC50 [1, 3]: 63 nM

IC50 (IRAK4; IRAK4 Inhibition Assay): 2.5 nM
SMILES: CCNc1cc(-n2ccc3cc(C#N)cnc32)ncc1C(=O)N[C@H]1CC[C@H](C(C)(C)O)CC1 [Example 100, 6-(5-cyano-1H-pyrrolo[2,3-b]pyridin-1-yl)-4-(ethylamino)-N-((trans)-4-(2-hydroxypropan-2-yl)cyclohexyl)nicotinamide]
EC50 [1, 3]: 95 nM

IC50 (IRAK4; IRAK4 Inhibition Assay): 2.3 nM
SMILES: CC(C)(O)[C@H](F)CNC(=O)c1cnc(-n2ccc3cc(C#N)cnc32)cc1NCC(F)(F)F [Example 5, (R)-6-(5-cyano-1H-pyrrolo[2,3-b]pyridin-1-yl)-N-(2-fluoro-3-hydroxy-3-methylbutyl)-4-((2,2,2-trifluoroethyl)amino)nicotinamide]
EC50 [1, 3]: 78 nM
IC50 [1, 3]: 95 nM

IC50 (IRAK4; IRAK4 Inhibition Assay): 1.8 nM
SMILES: CC(C)Nc1cc(-n2ccc3cc(C#N)cnc32)ncc1C(=O)N[C@H]1CC[C@@](F)(c2nccn2C)CC1 [Example 182, 6-(5-cyano-1H-pyrrolo[2,3-b]pyridin-1-yl)-N-((trans)-4-fluoro-4-(1-methyl-1H-imidazol-2-yl)cyclohexyl)-4-(isopropylamino)nicotinamide]
EC50 [1, 3]: 74 nM

IC50 (IRAK4; IRAK4 Inhibition Assay): 2.4 nM
SMILES: CC(C)(O)[C@H](F)CNC(=O)c1cnc(-n2ncc3cc(C#N)cnc32)cc1Nc1cnn(CCCF)c1 [Example 368]
IC50 [1, 3]: 61 nM

IC50 (IRAK4; IRAK4 Inhibition Assay): 1.5 nM
SMILES: C[C@@H](CO)Nc1cc(-n2ccc3cc(C#N)cnc32)ncc1C(=O)NC[C@@H](F)C(C)(C)O [Example 9, 6-(5-cyano-1H-pyrrolo[2,3-b]pyridin-1-yl)-N—((R)-2-fluoro-3-hydroxy-3-methylbutyl)-4-(((S)-1-hydroxypropan-2-yl)amino) nicotinamide]
EC50 [1, 3]: 57 nM
IC50 [1, 3]: 43 nM

IC50 (IRAK4; IRAK4 Inhibition Assay): 2.7 nM
SMILES: CC(C)(O)[C@H](F)CNC(=O)c1cnc(-n2ncc3cc(Cl)cnc32)cc1Nc1cnn(CCC#N)c1 [Example 377]
IC50 [1, 3]: 440 nM

IC50 (IRAK4; IRAK4 Inhibition Assay): 1.9 nM
SMILES: CC(C)Nc1cc(-n2ccc3cnc(NCC(C)(C)O)nc32)ncc1C(=O)NC[C@@H](F)C(C)(C)O [Example 187, (R)—N-(2-Fluoro-3-hydroxy-3-methylbutyl)-6-(2-((2-hydroxy-2-methylpropyl)amino)-7H-pyrrolo[2,3-d]pyrimidin-7-yl)-4-(isopropylamino)nicotinamide]
EC50 [1, 3]: 86 nM

IC50 (IRAK4; IRAK4 Inhibition Assay): 0.9 nM
SMILES: CC(C)(O)[C@H](F)CNC(=O)c1cnc(-n2ncc3cc(C#N)cnc32)cc1Nc1cnn(S(C)(=O)=O)c1 [Example 385]
IC50 [1, 3]: 40 nM

IC50 (IRAK4; IRAK4 Inhibition Assay): 1.5 nM
SMILES: CC(C)(O)[C@H](F)CNC(=O)c1cnc(-n2ccc3cc(C#N)cnc32)cc1Nc1cccc(NS(C)(=O)=O)c1 [Example 57, (R)-6-(5-cyano-1H-pyrrolo[2,3-b]pyridin-1-yl)-N-(2-fluoro-3-hydroxy-3-methylbutyl)-4-((3-(methylsulfonamido)phenyl)amino) nicotinamide]
EC50 [1, 3]: 173 nM

IC50 (IRAK4; IRAK4 Inhibition Assay): 2 nM
SMILES: CC(C)Nc1cc(-n2ccc3cc(C#N)cnc32)ncc1C(=O)N[C@H]1CC[C@H](C(=O)NC2CC2)CC1 [Example 91, 6-(5-cyano-1H-pyrrolo[2,3-b]pyridin-1-yl)-N-((trans)-4-(cyclopropylcarbamoyl)cyclohexyl)-4-(isopropylamino)nicotinamide]
EC50 [1, 3]: 32 nM

IC50 (IRAK4; IRAK4 Inhibition Assay): 2.6 nM
SMILES: COCCn1cc(Nc2cc(-n3ncc4cc(Cl)cnc43)ncc2C(=O)NC[C@@H](F)C(C)(C)O)cn1 [Example 364]
IC50 [1, 3]: 83 nM

IC50 (IRAK4; IRAK4 Inhibition Assay): 1.5 nM
SMILES: CCNC(=O)n1cc(Nc2cc(-n3ncc4cc(C#N)cnc43)ncc2C(=O)NC[C@@H](F)C(C)(C)O)cn1 [Example 386]
EC50 [1, 3]: 79 nM
IC50 [1, 3]: 1080 nM

IC50 (IRAK4; IRAK4 Inhibition Assay): 2.8 nM
SMILES: COC(C)(C)[C@H](F)CNC(=O)c1cnc(-n2ncc3cc(C#N)cnc32)cc1NC(C)C [Example 200]
EC50 [1, 3]: 79 nM
